In US6747023B1 (Daiichi Pharmaceutical Co., Ltd., priority 1998, dated 2004):
Where a name gives a salt, the structure may show the parent alone.

Biological target: T1, human FXa (Homo sapiens, UniProt P00742)
T1 construct: purchased Cosmobio-ERL HFXa-1011
Assay: Measurement of FXa inhibitory action (IC50)
Assay type: biochemical
Conditions: 0.05 U/ml human FXa, substrate S2222, absorbance at 405 nm, room temperature; read-out: Concentration (nM) of the sample at which 50% of Fxa activity is inhibited
Experimental: Measurement of FXa Inhibitory Action (IC50)
From the below-described equation, an inhibitory ratio % of each sample was determined.
Inhibitory ratio (%)=(1−OD of sample÷OD of control)×100

T1 sequence (P00742 235-488 limits assumed): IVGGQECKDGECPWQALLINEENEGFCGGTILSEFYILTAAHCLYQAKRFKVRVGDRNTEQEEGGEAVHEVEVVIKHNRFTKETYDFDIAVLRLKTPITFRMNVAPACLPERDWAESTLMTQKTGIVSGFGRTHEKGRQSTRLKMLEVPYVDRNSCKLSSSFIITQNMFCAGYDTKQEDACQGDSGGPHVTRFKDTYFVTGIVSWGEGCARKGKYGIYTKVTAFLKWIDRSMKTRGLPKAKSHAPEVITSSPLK
T1 sequence (P00742 41-179 partner limits assumed): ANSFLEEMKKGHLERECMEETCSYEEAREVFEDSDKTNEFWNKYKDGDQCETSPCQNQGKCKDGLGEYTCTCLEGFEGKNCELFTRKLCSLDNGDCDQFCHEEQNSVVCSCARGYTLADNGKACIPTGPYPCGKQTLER

Compound | IC50 [nM]
O=C(c1cnccc1-c1ccncc1)N1CCN(S(=O)(=O)c2ccc3cc(Cl)ccc3c2)CC1 [Example A-4, hydrochloride] | 54
NCc1cc(-c2ccc(C(=O)N3CCN(S(=O)(=O)c4ccc5cc(Cl)ccc5c4)CC3)cc2)ccn1 [Example A-155, 1-[4-(2-Aminomethylpyridin-4-yl)benzoyl]-4-[(6-chloronaphthalen-2-yl)sulfonyl]piperazine hydrochloride] | 28
O=C(c1cnc(-c2cc[n+]([O-])cc2)nc1)N1CCN(S(=O)(=O)c2cc3cc(Cl)ccc3[nH]2)CC1 [Example A-135, 4-[5-[[4-[(5-Chloroindol-2-yl)sulfonyl]piperazin-1-yl]carbonyl]pyrimidin-2-yl]pyridine N-oxide] | 14
O=C(c1ccc(-c2cc[n+]([O-])cc2)cc1)N1CCN(S(=O)(=O)c2cc3ccc(Cl)cc3[nH]2)CC1 [Example A-106, 4-[4-[[4-[(6-Chloroindol-2-yl)sulfonyl]piperazin-1-yl]carbonyl]phenyl]pyridine N-oxide] | 420
C#Cc1ccc2[nH]c(S(=O)(=O)N3CCN(C(=O)c4ccc(-c5cc[n+]([O-])cc5)cc4)CC3)cc2c1 [Example A-120, 4-[4-[[4-[(5-Ethynylindol-2-yl)sulfonyl]piperazin-1-yl]carbonyl]phenyl]pyridine N-oxide] | 14
O=C(c1ccc(-c2ccncc2)cc1)N1CCN(S(=O)(=O)c2cc3ccc(Cl)cc3s2)CC1 [Example A-97, 1-[(6-Chlorobenzo[b]thien-2-yl)sulfonyl]-4-[4-(pyridin-4-yl)benzoyl]piperazine hydrochloride] | 82
O=C(c1ccc(-c2ccncc2)cc1)N1CCN(S(=O)(=O)c2ccc3cc(Cl)ccc3c2)CC1 [Example A-1, 1-[(6-Chloronaphthalen-2-yl)sulfonyl]-4-[4-(pyridin-4-yl)benzoyl]piperazine hydrochloride] | 123
NC(=O)C[C@@H]1CN(S(=O)(=O)c2ccc3cc(Cl)ccc3c2)C[C@H](CC(N)=O)N1C(=O)c1ccc(-c2ccncc2)cc1 [Example A-173, cis-2,6-Bis(carbamoylmethyl)-4-[(6-chloronaphthalen-2-yl)sulfonyl]-1-[4-(pyridin-4-yl)benzoyl]piperazine] | 10
O=C(c1ccc(-c2ccncc2)cc1)N1CCN(S(=O)(=O)c2cc3cc(Cl)ccc3s2)CC1 [Example A-96, 1-[(5-Chlorobenzo[b]thien-2-yl)sulfonyl]-4-[4-(pyridin-4-yl)benzoyl]piperazine hydrochloride] | 450
O=C(c1ccc(-c2ccncc2)cc1)N1CCN(S(=O)(=O)c2cc3cc(Cl)ccc3o2)CC1 [Example A-85, 1-[(5-Chlorobenzo[b]furan-2-yl)sulfonyl]-4-[4-(pyridin-4-yl)benzoyl]piperazine] | 1000
O=C(c1ccc(-c2ccccn2)cc1)N1CCN(S(=O)(=O)c2cc3ccc(Cl)cc3s2)CC1 [Example A-98, 1-[(6-Chlorobenzo[b]thien-2-yl)sulfonyl]-4-[4-(pyridin-2-yl)benzoyl]piperazine hydrochloride] | 125
O=C(c1ccc(-c2ccncc2)cc1)N1CCN(S(=O)(=O)c2cc3cc(Cl)ccc3[nH]2)CC1 [Example A-101, 1-[(5-Chloroindol-2-yl)sulfonyl]-4-[4-(pyridin-4-yl)benzoyl]piperazine] | 9.5
O=C(c1cnc(-c2ccncc2)nc1)N1CCN(S(=O)(=O)c2cc3cc(Cl)ccc3[nH]2)CC1 [Example A-131, 1-[(5-Chloroindol-2-yl)sulfonyl]-4-[[2-(pyridin-4-yl)pyrimidin-5-yl]carbonyl]piperazine] | 19
O=C(c1ccc(-c2ccccn2)cc1)N1CCN(S(=O)(=O)c2ccc3cc(Cl)ccc3c2)CC1 [Example A-17, 1-[(6-Chloronaphthalen-2-yl)sulfonyl]-4-[4-(pyridin-2-yl)benzoyl]piperazine hydrochloride] | 180
Cc1c(S(=O)(=O)N2CCN(C(=O)c3ccc(-c4ccncc4)cc3)CC2)sc2ccc(Cl)cc12 [Example A-83, 1-[(5-Chloro-3-methylbenzo[b]thien-2-yl)sulfonyl]-4-[4-(piridin-4-yl)benzoyl]piperazine] | 2800
CN(C)C(=O)C[C@@H]1CN(S(=O)(=O)c2cc3ccc(Cl)cc3s2)C[C@H](CC(=O)N(C)C)N1C(=O)c1ncc(-c2cc[n+]([O-])cc2)cn1 [Example A-279, 4-[2-[[2,cis-6-Bis[(N,N-dimethylcarbamoyl)methyl]-4-[(6-chlorobenzo[b]thien-2-yl)sulfonyl]piperazin-1-yl]carbonyl]pyrimidin-5-yl]pyridine N-oxide] | 10
O=C(c1ccc(-c2ccncc2)cc1)N1CCN(S(=O)(=O)c2cc3ccc(Cl)cc3o2)CC1 [Example A-86, 1-[(6-Chlorobenzo[b]furan-2-yl)sulfonyl]-4-[4-(pyridin-4-yl)benzoyl]piperazine] | > 10000
O=C(c1ccc(-c2ccccn2)cc1)N1CCN(S(=O)(=O)c2cc3cc(Cl)ccc3[nH]2)CC1 [Example A-90, 1-[(5-Chloroindol-2-yl)sulfonyl]-4-[4-(pyridin-2-yl)benzoyl]piperazine hydrochloride] | 16

Further lines, results first:

IC50 [nM] | Compound
3.5 | O=C(CC1CN(S(=O)(=O)c2cc3cc(Cl)ccc3[nH]2)CCN1C(=O)C1CC=C(c2cc[n+]([O-])cc2)CC1)N1CCCCC1 (stereo not shown) [Example A-259, 4-[4-[[4-[(5-Chloroindol-2-yl)sulfonyl]-2-[(piperidin-1-yl)carbonylmethyl]piperazin-1-yl]carbonyl]-1-cyclohexen-1-yl]pyridine N-oxide]
1.9 | Cc1cc(-c2cnc(C(=O)N3CCN(S(=O)(=O)c4cc5cc(Cl)ccc5[nH]4)CC3)nc2)ccn1 [Example A-186, 1-[(5-Chloroindol-2-yl)sulfonyl]-4-[[5-(2-methylpyridin-4-yl)pyrimidin-2-yl]carbonyl]piperazine]
4.7 | O=C(c1ccc(-c2cc[n+]([O-])cc2)cc1)N1CCN(S(=O)(=O)c2cc3cc(Cl)ccc3[nH]2)CC1 [Example A-107, 4-[4-[[4-[(5-Chloroindol-2-yl)sulfonyl]piperazin-1-yl]carbonyl]phenyl]pyridine N-oxide]
3.6 | NC(=O)CC1CN(S(=O)(=O)c2cc3cc(Cl)ccc3[nH]2)CCN1C(=O)c1ccc(-c2ccncc2)cc1 (stereo not shown) [Example A-130, 2-Carbamoylmethyl-4-[(5-chloroindol-2-yl)sulfonyl]-1-[4-(pyridin-4-yl)benzoyl]piperazine]
8.6 | O=C(c1ccc(-c2cc[n+]([O-])cc2)cc1)N1CCN(S(=O)(=O)c2cc3ccc(Cl)cc3s2)CC1 [Example A-116, 4-[4-[[4-[(6-Chlorobenzo[b]thien-2-yl)sulfonyl]piperazin-1-yl]carbonyl]phenyl]pyridine N-oxide]
2.3 | C#Cc1ccc2[nH]c(S(=O)(=O)N3CCN(C(=O)c4ncc(-c5cc[n+]([O-])cc5)s4)CC3)cc2c1 [Example A-231, 4-[2-[[4-[(5-Ethynylindol-2-yl)sulfonyl]piperazin-1-yl]carbonyl]thiazol-5-yl]pyridine N-oxide]
0.7 | O=C(CC1CN(S(=O)(=O)c2cc3cc(Cl)ccc3[nH]2)CCN1C(=O)c1ncc(-c2cc[n+]([O-])cc2)s1)N1CCCC1 (stereo not shown) [Example A-298, 4-[2-[[4-[(5-Chloroidol-2-yl)sulfonyl]-2-[(pyrrolidin-1-yl)carbonylmethyl]piperazin-1-yl]carbonyl]thiazol-5-yl]pyridine N-oxide]
1.9 | O=C(CC1CN(S(=O)(=O)c2cc3ccc(Cl)cc3s2)CCN1C(=O)c1ncc(-c2cccc[n+]2[O-])cn1)NC1CC1 (stereo not shown) [Example A-293, 2-[2-[[4-[(6-Chlorobenzo[b]thien-2-yl)sulfonyl]-2-[(N-cyclopropylcarbamoyl)methyl]piperazin-1-yl]carbonyl]pyrimidin-5-yl]pyridine N-oxide]
1.6 | Cc1cc(-c2cnc(C(=O)N3CCN(S(=O)(=O)c4cc5cc(Cl)ccc5[nH]4)CC3)s2)cc[n+]1[O-] [Example A-229, 4-[2-[[4-[(5-Chloroindol-2-yl)sulfonyl]piperazin-1-yl]carbonyl]thiazol-5-yl]-2-methylpyridine N-oxide]
4.7 | O=C(c1ncc(-c2cccc[n+]2[O-])cn1)N1CCN(S(=O)(=O)c2cc3cc(Cl)ccc3[nH]2)CC1 [Example A-183, 2-[2-[[4-[(5-Chloroindol-2-yl)sulfonyl]piperazin-1-yl]carbonyl]pyrimidin-5-yl]pyridine N-oxide]
6.3 | O=C(c1ncc(-c2cccc[n+]2[O-])cn1)N1CCN(S(=O)(=O)c2cc3ccc(Cl)cc3s2)CC1 [Example A-185, 2-[2-[[4-[(6-Chlorobenzo[b]thien-2-yl)sulfonyl]piperazin-1-yl]carbonyl]pyrimidin-5-yl]pyridine N-oxide]
1.3 | 1-[(5-Chloroindol-2-yl)sulfonyl]-4-[4-methyl-2-(pyridin-4-yl)thiazol-5-yl]piperazine [Example A-296]
7.6 | CCC1CN(S(=O)(=O)c2cc3cc(Cl)ccc3[nH]2)CCN1C(=O)c1ncc(-c2cccc[n+]2[O-])cn1 (stereo not shown) [Example A-224, 2-[2-[[4-[(5-Chloroindol-2-yl)sulfonyl]-2-ethylpiperazin-1-yl]carbonyl]pyrimidin-5-yl]pyridine N-oxide]

Same assay, conditions: same test as Tables 1-6; read-out: FXa 50% inhibitory concentrations

IC50 [nM] | Compound
1.7 | CN1CCc2nc(C(=O)N3CCN(S(=O)(=O)c4cc5cc(Cl)ccc5[nH]4)CC3CC(=O)N3CCOCC3)sc2C1 (stereo not shown) [Example B-99, hydrochloride]
30 | C[n+]1ccc2nc(C(=O)N3CCN(S(=O)(=O)c4ccc5cc(Cl)ccc5c4)CC3)sc2c1 [Example B-61]
12.5 | CN1CCc2nc(C(=O)N3CCN(S(=O)(=O)c4ccc5cc(Cl)ccc5c4)CC3CC(=O)N3CCOCC3)sc2C1 (stereo not shown) [Example B-63, 4-[(6-Chloronaphthalen-2-yl)sulfonyl]-1-[(6-methyl-4,5,6,7-tetrahydrothiazolo[5,4-c]pyridin-2-yl)carbonyl]-2-[[(morpholin-4-yl)carbonyl]methyl]piperazine hydrochloride]
